How the values were obtained:
Assay in all cases: Test E pre-/postemergence herbicide test
guineagrass = assay type: in vivo, Panicum maximum
Summary of the method: (§1)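 Greenhouse response scored visually 12 to 14 days after treatment versus controls, 0 meaning no effect and 100 complete control. Compounds, formulated with surfactant in a non-phytotoxic solvent blend, were sprayed either preemergence after sowing or postemergence at the 1- to 4-leaf stage (2 to 18 cm).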

Canada horseweed = assay type: in vivo, Erigeron Canadensis
Summary of the method: as §1

barnyardgrass = assay type: in vivo, Echinochloa crus-galli
Summary of the method: as §1

Surinam grass = assay type: in vivo, Urochloa decumbens
Summary of the method: as §1

bermudagrass = assay type: in vivo, Cynodon dactylon
Summary of the method: as §1

green foxtail = assay type: in vivo, Setaria viridis
Summary of the method: as §1

broadleaf signalgrass = assay type: in vivo, Brachiaria platyphylla
Summary of the method: as §1

mustard = assay type: in vivo, Brassica nigra
Summary of the method: as §1

Italian ryegrass = assay type: in vivo, Lolium multiflorum
Summary of the method: as §1

southern sandbur = assay type: in vivo, Cenchrus echinatus
Summary of the method: as §1

[1] = Postemergence, 500 g ai/ha, scale 0 to 100
[2] = Postemergence, 250 g ai/ha, scale 0 to 100
[3] = Preemergence, 62 g ai/ha, scale 0 to 100
[4] = Preemergence, 125 g ai/ha, scale 0 to 100
[5] = Preemergence, 250 g ai/ha, scale 0 (no effect) to 100 (complete control)
[6] = Preemergence, 500 g ai/ha, scale 0 (no effect) to 100 (complete control)
[7] = postemergence, 125 g ai/ha, scale 0 to 100
[8] = postemergence, 62 g ai/ha, scale 0 to 100

CCn1nc(C(C)(C)C)cc1C(=O)Nc1cccc(C(N)=O)n1 [Compound 162, 6-[[[3-(1,1-dimethylethyl)-1-ethyl-1H-pyrazol-5-yl]carbonyl]amino]-2-pyridinecarboxamide]
Plant response rating, Guineagrass (guineagrass; [1]): 98 | Plant response rating, Guineagrass (guineagrass; [2]): 90 | Plant response rating, Guineagrass (guineagrass; [3]): 50 | Plant response rating, Guineagrass (guineagrass; [4]): 100 | Plant response rating, Guineagrass (guineagrass; [5]): 100 | Plant response rating, Guineagrass (guineagrass; [6]): 100 | Plant response rating, Guineagrass (guineagrass; [7]): 75 | Plant response rating, Guineagrass (guineagrass; [8]): 35 | Plant response rating, Horseweed (Canada horseweed; [1]): 100 | Plant response rating, Horseweed (Canada horseweed; [2]): 100 | Plant response rating, Horseweed (Canada horseweed; [3]): 100 | Plant response rating, Horseweed (Canada horseweed; [4]): 100 | Plant response rating, Horseweed (Canada horseweed; [5]): 100 | Plant response rating, Horseweed (Canada horseweed; [6]): 100 | Plant response rating, Horseweed (Canada horseweed; [7]): 70 | Plant response rating, Horseweed (Canada horseweed; [8]): 70 | Plant response rating, Barnyardgrass (barnyardgrass; [1]): 95 | Plant response rating, Barnyardgrass (barnyardgrass; [2]): 90 | Plant response rating, Barnyardgrass (barnyardgrass; [3]): 60 | Plant response rating, Barnyardgrass (barnyardgrass; [4]): 100 | Plant response rating, Barnyardgrass (barnyardgrass; [5]): 100 | Plant response rating, Barnyardgrass (barnyardgrass; [6]): 100 | Plant response rating, Barnyardgrass (barnyardgrass; [7]): 80 | Plant response rating, Barnyardgrass (barnyardgrass; [8]): 60 | Plant response rating, Surinam Grass (Surinam grass; [1]): 100 | Plant response rating, Surinam Grass (Surinam grass; [2]): 98 | Plant response rating, Surinam Grass (Surinam grass; [3]): 60 | Plant response rating, Surinam Grass (Surinam grass; [4]): 75 | Plant response rating, Surinam Grass (Surinam grass; [6]): 100 | Plant response rating, Surinam Grass (Surinam grass; [7]): 90 | Plant response rating, Surinam Grass (Surinam grass; [8]): 50 | Plant response rating, Bermudagrass (bermudagrass; [1]): 80 | Plant response rating, Bermudagrass (bermudagrass; [2]): 70 | Plant response rating, Bermudagrass (bermudagrass; [3]): 70 | Plant response rating, Bermudagrass (bermudagrass; [4]): 80 | Plant response rating, Bermudagrass (bermudagrass; [5]): 90 | Plant response rating, Bermudagrass (bermudagrass; [6]): 100 | Plant response rating, Bermudagrass (bermudagrass; [7]): 30 | Plant response rating, Bermudagrass (bermudagrass; [8]): 0 | Plant response rating, Foxtail, Green (green foxtail; [1]): 95 | Plant response rating, Foxtail, Green (green foxtail; [2]): 85 | Plant response rating, Foxtail, Green (green foxtail; [3]): 30 | Plant response rating, Foxtail, Green (green foxtail; [4]): 85 | Plant response rating, Foxtail, Green (green foxtail; [5]): 100 | Plant response rating, Foxtail, Green (green foxtail; [6]): 100 | Plant response rating, Foxtail, Green (green foxtail; [7]): 50 | Plant response rating, Foxtail, Green (green foxtail; [8]): 30 | Plant response rating, Signalgrass (broadleaf signalgrass; [1]): 90 | Plant response rating, Signalgrass (broadleaf signalgrass; [2]): 80 | Plant response rating, Signalgrass (broadleaf signalgrass; [4]): 70 | Plant response rating, Signalgrass (broadleaf signalgrass; [5]): 100 | Plant response rating, Signalgrass (broadleaf signalgrass; [6]): 100 | Plant response rating, Signalgrass (broadleaf signalgrass; [7]): 70 | Plant response rating, Signalgrass (broadleaf signalgrass; [8]): 30 | Plant response rating, Black Mustard (mustard; [1]): 95 | Plant response rating, Black Mustard (mustard; [2]): 90 | Plant response rating, Black Mustard (mustard; [3]): 20 | Plant response rating, Black Mustard (mustard; [4]): 50 | Plant response rating, Black Mustard (mustard; [5]): 80 | Plant response rating, Black Mustard (mustard; [6]): 100 | Plant response rating, Black Mustard (mustard; [7]): 75 | Plant response rating, Black Mustard (mustard; [8]): 60 | Plant response rating, Ryegrass, Italian (Italian ryegrass; [1]): 100 | Plant response rating, Ryegrass, Italian (Italian ryegrass; [2]): 98 | Plant response rating, Ryegrass, Italian (Italian ryegrass; [3]): 50 | Plant response rating, Ryegrass, Italian (Italian ryegrass; [4]): 95 | Plant response rating, Ryegrass, Italian (Italian ryegrass; [5]): 95 | Plant response rating, Ryegrass, Italian (Italian ryegrass; [6]): 95 | Plant response rating, Ryegrass, Italian (Italian ryegrass; [7]): 95 | Plant response rating, Ryegrass, Italian (Italian ryegrass; [8]): 50 | Plant response rating, Sandbur (southern sandbur; [1]): 90 | Plant response rating, Sandbur (southern sandbur; [2]): 80 | Plant response rating, Sandbur (southern sandbur; [3]): 20 | Plant response rating, Sandbur (southern sandbur; [4]): 70 | Plant response rating, Sandbur (southern sandbur; [5]): 80 | Plant response rating, Sandbur (southern sandbur; [6]): 80 | Plant response rating, Sandbur (southern sandbur; [7]): 50 | Plant response rating, Sandbur (southern sandbur; [8]): 20

From US20060069132A1, “Azolecarboxamide herbicides” (priority 2004, published 2006)
